Test results published in patent US11000516B2 (priority 2015, dated 2021).
pEC50: −log10 of the molar value.

Legend:
[1] = system: EDEN1 (clinical DENV1 isolate); experiment: Antiviral effect in HuH-7 cells, plaque assay of supernatant 48 h pi; format: cell-based; conditions: read-out: EC50
Protocol: (§1) Cells were infected with DENV strains for 1 hour at 37° C. and washed once with culture media. […] The supernatants were subjected to standard plaque assay and the EC50 values were determined using the GraphPad Prism software.
(§2) NITD008, an adenosine analog inhibitor of DENV polymerase (Yin et al., 2009) was used as a positive control.

[2] = system: S221 (mouse-adapted DENV2 strain); experiment: as above; format: cell-based; conditions: HuH-7, S221, MOI 0.3; read-out: EC50
Protocol: as §1, §2

[3] = system: EDEN2 (clinical DENV2 isolate); experiment: as above; format: cell-based; conditions: HuH-7, EDEN2, MOI 0.3; read-out: EC50
Protocol: as §1, §2

[4] = system: EDEN1 (clinical DENV1 isolate); experiment: Ab-mediated infection of THP-1 cells with enhancing concentration of 4G2 Ab; format: cell-based; conditions: THP-1 with 4G2 Ab, EDEN1, MOI 2, single experiment; read-out: EC50
Protocol: as §1, §2

[5] = system: S221 (mouse-adapted DENV2 strain); experiment: as above; format: cell-based; conditions: THP-1 with 4G2 Ab, S221, MOI 2, single experiment; read-out: EC50
Protocol: as §1, §2

[6] = system: EDEN2 (clinical DENV2 isolate); experiment: as above; format: cell-based; conditions: THP-1 with 4G2 Ab, EDEN2, MOI 50, single experiment; read-out: EC50
Protocol: as §1, §2

EDEN1 = experiment: Non-lethal viremia mouse model; format: in vivo, mice
Protocol: (§3) Mice were inoculated i.v. with EDEN1 (7×10^7 pfu) or EDEN2 (1×10^8 pfu). […] Average viral copy numbers on day 1 and 2 were measured using mixed serum of each group. […] A P value less than 0.05 was considered significant (*P<0.05). The number of mice per group is 6. […] Average viral copy numbers on days 4 and 5 were measured using mixed serum of each group. […] The virological log reduction (VLR) from day 3 to day 6 was also shown as the mean value and standard deviations. The number of mice per group is 6.
(§4) Since dengue fever patients in general present at a clinic when viremia is at a peak level (Low et al., 2014; Nguyen et al., 2013; Tricou et al., 2010), we next compared the 2 different dosing regimens; one started at the time of infection and another started at the time of peak viremia (on day 3 pi) similar to human situation (FIG. 4A). In this experiment, we used a non-lethal viremia mouse model, which permits the tracking of viremia kinetics for a longer period of time (FIG. 1B).

EDEN2 = experiment: Non-lethal viremia mouse model; format: in vivo, mice
Protocol: as §3, §4

[7] = system: EDEN1 (clinical DENV1 isolate); experiment: Antiviral effect in BHK-21 cells, plaque assay of supernatant 48 h pi; format: cell-based; conditions: read-out: EC50
Protocol: as §1, §2

[8] = system: S221 (mouse-adapted DENV2 strain); experiment: as above; format: cell-based; conditions: BHK-21, S221, MOI 0.3; read-out: EC50
Protocol: as §1, §2

[9] = system: EDEN2 (clinical DENV2 isolate); experiment: as above; format: cell-based; conditions: BHK-21, EDEN2, MOI 0.3; read-out: EC50
Protocol: as §1, §2

[10] = system: EDEN1 (clinical DENV1 isolate); experiment: Antiviral effect in Vero cells, plaque assay of supernatant 48 h pi; format: cell-based
Protocol: as §1, §2

[11] = system: S221 (mouse-adapted DENV2 strain); experiment: as above; format: cell-based; conditions: S221, MOI 0.3, read-out: EC50
Protocol: as §1, §2

[12] = system: EDEN2 (clinical DENV2 isolate); experiment: as above; format: cell-based; conditions: EDEN2, MOI 0.3, read-out: EC50
Protocol: as §1, §2

[13] = mice, celgosivir 50 mg/kg BID; cited from earlier work
[14] = CELADEN study regimen, human; cited from earlier work

With `C#C[C@@]1(O)[C@H](O)[C@@H](CO)O[C@H]1n1ccc2c(N)ncnc21` [NITD008, reference compound] the pEC50 ([1]; HuH-7, EDEN1, MOI 0.01) was 6.45, the pEC50 ([1]; HuH-7, EDEN1, MOI 0.3) was 6.16 and the pEC50 [2] was 7.13. For the same compound, the pEC50 [3] was 7.01, the pEC50 [4] was 6.45 and the pEC50 [5] was 6.41. The pEC50 [6] was 6.17, the “viremia reduction on day 3 pi” value (EDEN1; EDEN1, NITD008 25 mg/kg BID from day 0) was 3.5 fold and the “VLR from day 3 to day 6” value (EDEN1; EDEN1, NITD008 25 mg/kg BID started on day 3) was 0.96. The “viremia reduction on day 3 pi” value (EDEN2; EDEN2, NITD008 25 mg/kg BID from day 0) was 4.9 fold, the “VLR from day 3 to day 6” value (EDEN2; EDEN2, NITD008 25 mg/kg BID started on day 3) was 2.24 and the pEC50 ([7]; BHK-21, EDEN1, MOI 0.01) was 6.22. The pEC50 ([7]; BHK-21, EDEN1, MOI 0.3) was 6.06, the pEC50 [8] was 6.29 and the pEC50 [9] was 6.45. It also gave a pEC50 ([10]; EDEN1, MOI 0.01, read-out: EC50) of 6.04, a pEC50 ([10]; EDEN1, MOI 0.3, read-out: EC50) of 5.55 and a pEC50 [11] of 5.83. For the same compound, the pEC50 [12] was 5.93.
In the case of `O[C@H]1[C@H](O)[C@@H](O)CN2CC[C@H](O)[C@H]12` [castanospermine], the “steady state minimum castanospermine concentration” value [13] is listed as 400 nanograms/ml and the “steady state maximum castanospermine concentration” value [14] is listed as 5100 nanograms/ml.
